Data from US12157755B2, “CD73 inhibitor, preparation method therefor and application thereof” (Abbisko Therapeutics Co., Ltd., priority 2019, dated 2024).

Experiments:
[1] = molecular target: T1, CD73 enzymatic activity expressed on the cell surface of MDA-MB-231 cells (Homo sapiens, UniProt P21589); assay: Inhibition of CD73 enzymatic activity on the cell surface (Cell Titer Glo (CTG) experiment), MDA-MB-231 cells; assay type: cell-based; conditions: MDA-MB-231 cells endogenously expressing CD73, AMP, 37° C. for 2 hours, CTG readout; read-out: Cellular activity IC50
T1 construct: Human breast cancer cells MDA-MB-231 that endogenously express CD73 were used; host or cells: MDA-MB-231
T1 sequence (P21589 27-549): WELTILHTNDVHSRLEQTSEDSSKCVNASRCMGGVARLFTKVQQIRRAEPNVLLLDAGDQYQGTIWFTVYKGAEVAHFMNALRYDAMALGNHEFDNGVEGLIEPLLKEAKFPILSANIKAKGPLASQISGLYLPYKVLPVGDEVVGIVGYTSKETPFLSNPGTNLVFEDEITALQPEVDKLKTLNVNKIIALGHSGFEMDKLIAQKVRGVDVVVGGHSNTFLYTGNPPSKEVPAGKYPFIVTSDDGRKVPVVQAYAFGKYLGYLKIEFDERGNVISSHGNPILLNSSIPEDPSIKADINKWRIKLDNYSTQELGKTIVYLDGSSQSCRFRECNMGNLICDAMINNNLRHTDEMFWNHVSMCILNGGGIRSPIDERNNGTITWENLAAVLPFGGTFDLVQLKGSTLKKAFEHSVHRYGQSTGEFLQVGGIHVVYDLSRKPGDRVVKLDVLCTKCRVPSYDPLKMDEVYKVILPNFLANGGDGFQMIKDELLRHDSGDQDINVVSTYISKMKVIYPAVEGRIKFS
Outline: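 MDA-MB-231 cells with endogenous CD73 were washed serum-free, preincubated with compound for 15 min, then given AMP (1.2 mM stock) for 2 h at 37° C. Remaining AMP in the supernatant was read by CellTiter-Glo with added ATP. IC50 came from a four-parameter logistic fit.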

CD73 = molecular target: T2, CD73 (Homo sapiens, UniProt P21589); assay: In vitro enzymatic activity against CD73 (malachite green test using soluble CD73); assay type: biochemical; conditions: soluble CD73 36 ng/mL, 50 μM AMP, 30 minutes at 25° C.
T2 construct: purchased R&D systems 5795-EN-010
T2 sequence (P21589 27-547 limits assumed): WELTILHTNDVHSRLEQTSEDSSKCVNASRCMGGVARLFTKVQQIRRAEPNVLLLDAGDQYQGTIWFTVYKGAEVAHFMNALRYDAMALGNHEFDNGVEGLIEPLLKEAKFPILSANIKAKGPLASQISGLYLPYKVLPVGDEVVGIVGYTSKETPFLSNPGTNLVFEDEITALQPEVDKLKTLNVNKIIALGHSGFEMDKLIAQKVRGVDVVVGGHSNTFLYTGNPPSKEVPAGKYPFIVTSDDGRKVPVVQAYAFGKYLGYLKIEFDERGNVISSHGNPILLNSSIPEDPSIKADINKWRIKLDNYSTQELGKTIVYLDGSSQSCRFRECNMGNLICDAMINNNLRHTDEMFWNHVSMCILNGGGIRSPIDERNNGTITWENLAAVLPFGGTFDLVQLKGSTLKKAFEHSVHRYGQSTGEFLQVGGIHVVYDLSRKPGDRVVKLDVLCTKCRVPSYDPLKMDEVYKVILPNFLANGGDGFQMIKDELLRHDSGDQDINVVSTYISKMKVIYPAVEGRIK
Outline: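 Soluble recombinant CD73 (36 ng/mL) incubated with compound and 50 μM AMP for 30 min at 25 °C in 25 mM Tris pH 7.5, 5 mM MgCl2, 0.005% Tween-20. Released inorganic phosphate read by malachite green; IC50 from non-linear regression of % inhibition.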

Question: `O=P(O)(O)CP(=O)(O)OC[C@H]1C[C@@H](c2ccc3c(N[C@H]4CCc5cc(F)cc(F)c54)nc(Cl)nn23)[C@H](O)[C@@H]1O` [Example 33, (((((1R,2R,3S,4S)-4-(2-chloro-4-(((S)-5,7-difluoro-2,3-dihydro-1H-inden-1-yl)amino)pyrrolo[2,1-f][1,2,4]triazin-7-yl)-2,3-dihydroxycyclopentyl)methoxy)(hydroxy)phosphoryl)methyl)phosphonic acid] was tested. Which IC50 [1] did it give?
Answer: 2.4 nM

Question: What about the IC50 (CD73) of the same compound?
Answer: 27.9 nM
